In ChEMBL document CHEMBL5550217, “Discovery of gem-Dimethyl-hydroxymethylpyridine Derivatives as Potent Non-nucleoside RSV Polymerase Inhibitors” (J Med Chem, 2024):

What was measured:
[1] = system: Respiratory syncytial virus; test: Antiviral activity against Respiratory syncytial virus (RSV) infected in human APC-126 cells assessed as replicon by measuring protein adjusted effective concentration in the presence of 40% human serum measured after 3 days by Renilla Glo assay; format: functional, organism-based; settings: 72 h
[2] = system: Respiratory syncytial virus; test: Antiviral activity against Respiratory syncytial virus (RSV)-A2-eGFP infected in human HeLa cells assessed as eGFP expression measured after 3 days by RSV Cell-based infection assay; format: functional, organism-based; settings: 72 h
[3] = Inhibition of RSV RNA polymerase assessed as RNA products using […] template by SPA primer extension enzymatic assay; parameters: species or system Respiratory syncytial virus
[4] = Cytotoxicity against human HeLa cells measured after 3 days by ATPlite kit assay; format: toxicity, cell-based; settings: time 3 day
[5] = Metabolic stability in human hepatocytes assessed as intrinsic clearance per 10^6 cells at 1 uM measured upto 180 mins by LC-MS/MS analysis; format: ADME, cell-based, Hepatocyte; settings: read-out: CLH
[6] = Clearance in Sprague-Dawley rat at 1.25 mg/kg, iv; format: ADME, organism-based; settings: in vivo
[7] = Metabolic stability in rat hepatocytes assessed as intrinsic clearance per 10^6 cells at 1 uM measured upto 180 mins by LC-MS/MS analysis; format: ADME, cell-based, Hepatocyte; settings: read-out: CLH
[8] = Metabolic stability in human hepatocytes assessed as intrinsic clearance measured per 10^6 cells; format: ADME, cell-based, Hepatocyte; settings: read-out: CLH
[9] = system: Respiratory syncytial virus; test: Antiviral activity against Respiratory syncytial virus (RSV) assessed as reduction in replicon RNA by Renilla Luciferase assay system; format: functional, organism-based; settings: human respiratory syncytial virus
[10] = Metabolic stability in rat hepatocytes assessed as intrinsic clearance measured per 10^6 cells; format: ADME, cell-based, Hepatocyte; settings: read-out: CLH
[11] = Inhibition of RSV RNA polymerase assessed as RNA products using […] template by Flashplate primer extension enzymatic assay; parameters: species or system Respiratory syncytial virus

| Compound | EC50 [1] | EC50 [2] | IC50 [3] | CC50 at 72 h [4] | hepatocyte CLint at 1 µM [5] | clearance [6] | hepatocyte CLint at 1 µM [7] | hepatocyte CLint [8] | EC50 [9] | hepatocyte CLint [10] | IC50 [11] |
| --- | --- | --- | --- | --- | --- | --- | --- | --- | --- | --- | --- |
| CCc1cc2cc(C(=O)NC[C@](O)(c3cc(C(C)(C)O)c(F)c(-c4ccc(F)cc4)n3)C(F)(F)F)cc(OC)c2nn1 | 41 nM | 3.2 nM | 0.37 nM | 21800 nM | 14 µL/min/1e6 cells |  |  |  |  |  |  |
| COc1cc(C(=O)NC[C@](O)(c2cc(C(C)(C)O)c(Cl)c(-c3ccc(F)cc3)n2)C(F)(F)F)cc2cc(C)cnc12 |  | 1.7 nM | 1.4 nM | 21700 nM | 4.3 µL/min/1e6 cells |  |  |  |  |  |  |
| COc1cc(C(=O)NC[C@](O)(c2cc3c(c(-c4ccc(F)cc4)n2)OC[C@]3(C)NS(C)(=O)=O)C(F)(F)F)cc2nc(N)sc12 |  | 1.4 nM | 0.52 nM | 13600 nM | 12 µL/min/1e6 cells | 67.3 mL/min/kg | 72 µL/min/1e6 cells |  |  |  |  |
| COc1cc(C(=O)NC[C@](O)(c2cc(C(C)(C)O)c(F)c(-c3ccc(F)cc3)n2)C(F)(F)F)cc2cc(C)c(F)nc12 | 48 nM | 3.8 nM | 1.1 nM | 13100 nM | 4.3 µL/min/1e6 cells |  | 57 µL/min/1e6 cells |  |  |  |  |
| COc1cc(C(=O)NC[C@](O)(c2cc(C(C)(C)O)c(F)c(-c3ccc(F)cc3)n2)C(F)(F)F)cc2cc(Cl)nnc12 | 110 nM | 1 nM | 0.22 nM | 9900 nM | < 1.2 µL/min/1e6 cells |  | 13 µL/min/1e6 cells |  |  |  |  |
| COc1cc(C(=O)NC[C@](O)(c2cc(C(C)(C)O)c(F)c(-c3ccc(F)cc3)n2)C(F)(F)F)cc2cc(OC(F)F)nnc12 | 1240 nM | 5.1 nM | 0.91 nM | 8900 nM |  |  |  |  |  |  |  |
| COc1cc(C(=O)NC[C@](O)(c2cc3c(c(-c4ccc(F)cc4)n2)OC[C@]3(C)N)C(F)(F)F)ccc1OC[C@@H](C)O |  | 10 nM | 5.1 nM | 58400 nM | 31 µL/min/1e6 cells | 89 mL/min/kg | 54 µL/min/1e6 cells | 31 µL/min/1e6 cells | 10 nM | 54 µL/min/1e6 cells |  |
| COc1cc(C(=O)NC[C@](O)(c2cc(C(C)(C)O)c(F)c(-c3ccc(F)cc3)n2)C(F)(F)F)cc2cccnc12 | 310 nM | 11 nM | 0.63 nM | 16000 nM | 4.1 µL/min/1e6 cells |  | 120 µL/min/1e6 cells |  |  |  |  |
| COc1cc(C(=O)NC[C@](O)(c2cc(C(C)(C)O)c(F)c(-c3ccc(F)cc3)n2)C(F)(F)F)cc2cc(C)cnc12 | 43 nM | 4.5 nM | 0.42 nM | 14600 nM | 6.6 µL/min/1e6 cells |  | 28 µL/min/1e6 cells |  |  |  |  |
| COc1cc(C(=O)NC[C@](O)(c2nc(-c3ccc(F)cc3)c(F)c(C(C)(C)O)c2F)C(F)(F)F)cc2cc(C)cnc12 |  | 2.6 nM | 0.25 nM | 43000 nM | 9.7 µL/min/1e6 cells |  |  |  |  |  |  |
| COc1cc(C(=O)NC[C@](O)(c2cc3c(c(-c4ccc(F)cc4)n2)OC[C@]3(C)NS(C)(=O)=O)C(F)(F)F)ccc1OC[C@@H](C)O |  | 12 nM | 4.8 nM | 54300 nM | 11 µL/min/1e6 cells | 34 mL/min/kg | 28 µL/min/1e6 cells |  |  |  |  |
| COc1cc(C(=O)NC[C@](O)(c2cc3c(c(-c4ccc(F)cc4)n2)OC[C@]3(C)NC(C)=O)C(F)(F)F)cc2cc(C)cnc12 |  | 2.7 nM | 0.83 nM | 14500 nM | 4.9 µL/min/1e6 cells | 13.6 mL/min/kg | 54 µL/min/1e6 cells |  |  |  |  |
| COc1cc(C(=O)NC[C@](O)(c2cc(C(C)(C)O)c(F)c(-c3ccc(F)cc3)n2)C(F)(F)F)cc2cc(CF)cnc12 |  | 12.5 nM |  | 39800 nM |  |  |  |  |  |  | 3.82 nM |
| CC(=O)N[C@@]1(C)COc2c1cc([C@@](O)(CNC(=O)c1cc(OC3CC3)c3ncccc3c1)C(F)(F)F)nc2-c1ccc(F)cc1 |  | 19 nM | 3.7 nM | 46800 nM | < 1.9 µL/min/1e6 cells | 6.13 mL/min/kg | 11 µL/min/1e6 cells |  |  |  |  |
| COc1cc(C(=O)NC[C@](O)(c2cc(C(C)(C)O)c(F)c(-c3ccc(F)cc3)n2)C(F)(F)F)cc2cc(C3CC3)cnc12 | 2170 nM | 54 nM |  | 12900 nM | < 1.9 µL/min/1e6 cells |  |  |  |  |  | 2 nM |
| COc1cc(C(=O)NC[C@](O)(c2cc3c(c(-c4ccc(F)cc4)n2)OC[C@]3(C)NC(C)=O)C(F)(F)F)ccc1OC[C@@H](C)O |  | 14 nM | 23 nM | 73200 nM |  |  | 13 µL/min/1e6 cells |  |  |  |  |
| COc1cc(C(=O)NC[C@](O)(c2cc(C(C)(C)O)c(F)c(-c3ccc(F)cc3)n2)C(F)(F)F)cc2cc(C(F)F)nnc12 | 190 nM | 3.5 nM | 0.4 nM | 18300 nM | < 1.9 µL/min/1e6 cells |  | 6.9 µL/min/1e6 cells |  |  |  |  |
| COc1cc(C(=O)NC[C@](O)(c2cc3c(c(-c4ccc(F)cc4)n2)OC[C@]3(C)NC(C)=O)C(F)(F)F)cc2cccnc12 |  | 15 nM | 4.3 nM | 12700 nM | 8.8 µL/min/1e6 cells | 19 mL/min/kg | 11 µL/min/1e6 cells |  |  |  |  |
| COc1cc(C(=O)NC[C@](O)(c2cc(C(C)(C)O)c(F)c(-c3ccc(F)cc3)n2)C(F)(F)F)cc2cc(C(F)(F)F)cnc12 | 802 nM | 26 nM |  | 12600 nM | < 1.9 µL/min/1e6 cells |  | < 1.9 µL/min/1e6 cells |  |  |  | 0.72 nM |
| COc1nc2c(OC)cc(C(=O)NC[C@](O)(c3cc(C(C)(C)O)c(F)c(-c4ccc(F)cc4)n3)C(F)(F)F)cc2cc1C | 1690 nM | 34 nM | 1.52 nM | 31000 nM |  |  |  |  |  |  |  |
| CC(=O)N[C@@]1(C)COc2c1cc([C@@](O)(CNC(=O)c1cc(OC3CC3)c3ncc(F)cc3c1)C(F)(F)F)nc2-c1ccc(F)cc1 |  | 22 nM | 3.6 nM | 14000 nM | < 1.9 µL/min/1e6 cells | 2.51 mL/min/kg |  |  |  |  |  |
| COc1cc(C(=O)NC[C@](O)(c2cc(C(C)(C)O)c(F)c(-c3ccc(F)cc3)n2)C(F)(F)F)cc2cc(F)nnc12 | 330 nM | 6.8 nM | 1.31 nM | 17300 nM | < 1.9 µL/min/1e6 cells |  | 93 µL/min/1e6 cells |  |  |  |  |
| COc1cc(C(=O)NC[C@](O)(c2nc(-c3ccc(F)cc3)c(Cl)c(C(C)(C)O)c2F)C(F)(F)F)cc2cc(C)cnc12 |  | 4.8 nM | 2.9 nM | 45800 nM |  |  |  |  |  |  |  |
| COc1cc(C(=O)NC[C@](O)(c2cc3c(c(-c4ccc(F)cc4)n2)OC[C@]3(C)NS(C)(=O)=O)C(F)(F)F)cc2cccnc12 |  | 5.3 nM | 0.7 nM | 10200 nM | 3 µL/min/1e6 cells | 60.9 mL/min/kg | 73 µL/min/1e6 cells |  |  |  |  |
| COc1cc(C(=O)NC[C@](O)(c2cc3c(c(-c4ccc(F)cc4)n2)OC[C@]3(C)NS(C)(=O)=O)C(F)(F)F)cc2cc(C)cnc12 |  | 1.3 nM | 0.36 nM | 11400 nM | 3.7 µL/min/1e6 cells |  |  |  |  |  |  |
| COc1cc(C(=O)NC[C@](O)(c2cc(C(C)(C)O)c(F)c(-c3ccc(F)cc3)n2)C(F)(F)F)cc2cc(C3CC3)nnc12 | 225 nM | 2.6 nM | 1.17 nM | 8800 nM | < 1.2 µL/min/1e6 cells |  |  |  |  |  |  |
| COc1cc(C(=O)NC[C@](O)(c2cc(C(C)(C)O)c(F)c(-c3ccc(F)cc3)n2)C(F)(F)F)cc2cc(C(F)F)cnc12 | 97 nM | 3.6 nM |  | 13200 nM | < 1.9 µL/min/1e6 cells |  | 19 µL/min/1e6 cells |  |  |  | 1.7 nM |
